Test results reported in PubChem BioAssay (NCI).
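Following 48 hours of exposure in 96-well plates, responses at five concentrations were used to interpolate endpoints linearly. GI50: concentration for 50% inhibition of growth. TGI denotes the concentration required for complete inhibition of growth.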

tested on: HOP-62 NSCLC; assay: inhibition of tumour cell growth, NCI panel, 48 h

Row | Compound | TGI [µM]
1 | NCCCCC(N)C(=O)NCCNc1ccc(NCCNC(=O)C(N)CCCCN)c2c1C(=O)c1ccccc1C2=O (configuration not stated) | > 100
2 | C=CCc1cc(-c2cc(CC=C)c(O)c(CNCCCl)c2)cc(CNCCCl)c1O | 33.2
3 | CC(C)(C)c1ccc(-c2nc3ccc(Cl)cc3c(=O)o2)cc1 | 49.7

tested on: HOP-92 NSCLC; assay: inhibition of tumour cell growth, NCI panel, 48 h

Row | Compound | TGI [µM]
4 | CCCCCCC(=O)C/C(=N/NC(N)=S)C(=O)NC1C2CC3CC(C2)CC1C3 (configuration not stated) | > 100
5 | CC1=CC(=O)N(n2c(Cc3ccccc3)n[nH]c2=O)C1=O | > 100
6 | CCNc1cc2c(cc1O)CC[C@@H]1[C@@H]2CC[C@]2(C)[C@@H](O)CC[C@@H]12 | 22.4
7 | O=[N+]([O-])c1cccc2nc3ccccc3c(NCCC[N+]3([O-])CCOCC3)c12 | 0.29
8 | NCCCCC(N)C(=O)NCCNc1ccc(NCCNC(=O)C(N)CCCCN)c2c1C(=O)c1ccccc1C2=O (configuration not stated) | > 100
9 | C=CCc1cc(-c2cc(CC=C)c(O)c(CNCCCl)c2)cc(CNCCCl)c1O | 31.2
10 | CC(C)(C)c1ccc(-c2nc3ccc(Cl)cc3c(=O)o2)cc1 | 46.8

tested on: HS 578T breast; assay: inhibition of tumour cell growth, NCI panel, 48 h

Row | Compound | TGI [µM]
11 | CC1=CC(=O)N(n2c(Cc3ccccc3)n[nH]c2=O)C1=O | > 100
12 | CCNc1cc2c(cc1O)CC[C@@H]1[C@@H]2CC[C@]2(C)[C@@H](O)CC[C@@H]12 | 35
13 | O=[N+]([O-])c1cccc2nc3ccccc3c(NCCC[N+]3([O-])CCOCC3)c12 | > 100
14 | NCCCCC(N)C(=O)NCCNc1ccc(NCCNC(=O)C(N)CCCCN)c2c1C(=O)c1ccccc1C2=O (configuration not stated) | > 100
15 | CC(C)(C)c1ccc(-c2nc3ccc(Cl)cc3c(=O)o2)cc1 | > 100

tested on: HT29 colon; assay: inhibition of tumour cell growth, NCI panel, 48 h

Row | Compound | TGI [µM]
16 | CCCCCCC(=O)C/C(=N/NC(N)=S)C(=O)NC1C2CC3CC(C2)CC1C3 (configuration not stated) | > 100
17 | CC1=CC(=O)N(n2c(Cc3ccccc3)n[nH]c2=O)C1=O | > 100
18 | CCNc1cc2c(cc1O)CC[C@@H]1[C@@H]2CC[C@]2(C)[C@@H](O)CC[C@@H]12 | 33.7
19 | O=[N+]([O-])c1cccc2nc3ccccc3c(NCCC[N+]3([O-])CCOCC3)c12 | 0.761
20 | NCCCCC(N)C(=O)NCCNc1ccc(NCCNC(=O)C(N)CCCCN)c2c1C(=O)c1ccccc1C2=O (configuration not stated) | > 100
21 | C=CCc1cc(-c2cc(CC=C)c(O)c(CNCCCl)c2)cc(CNCCCl)c1O | 36.5
22 | CC(C)(C)c1ccc(-c2nc3ccc(Cl)cc3c(=O)o2)cc1 | 63.8

tested on: IGROV1 ovarian; assay: inhibition of tumour cell growth, NCI panel, 48 h

Row | Compound | TGI [µM]
23 | CCCCCCC(=O)C/C(=N/NC(N)=S)C(=O)NC1C2CC3CC(C2)CC1C3 (configuration not stated) | > 100
24 | CC1=CC(=O)N(n2c(Cc3ccccc3)n[nH]c2=O)C1=O | > 100
25 | CCNc1cc2c(cc1O)CC[C@@H]1[C@@H]2CC[C@]2(C)[C@@H](O)CC[C@@H]12 | 33.2
26 | O=[N+]([O-])c1cccc2nc3ccccc3c(NCCC[N+]3([O-])CCOCC3)c12 | 0.608
27 | NCCCCC(N)C(=O)NCCNc1ccc(NCCNC(=O)C(N)CCCCN)c2c1C(=O)c1ccccc1C2=O (configuration not stated) | > 100
28 | C=CCc1cc(-c2cc(CC=C)c(O)c(CNCCCl)c2)cc(CNCCCl)c1O | 51.4
29 | CC(C)(C)c1ccc(-c2nc3ccc(Cl)cc3c(=O)o2)cc1 | 87.2

tested on: K-562 leukemia; assay: inhibition of tumour cell growth, NCI panel, 48 h

Row | Compound | TGI [µM]
30 | CC1=CC(=O)N(n2c(Cc3ccccc3)n[nH]c2=O)C1=O | > 100
31 | CCNc1cc2c(cc1O)CC[C@@H]1[C@@H]2CC[C@]2(C)[C@@H](O)CC[C@@H]12 | > 41.4
32 | O=[N+]([O-])c1cccc2nc3ccccc3c(NCCC[N+]3([O-])CCOCC3)c12 | > 100
33 | NCCCCC(N)C(=O)NCCNc1ccc(NCCNC(=O)C(N)CCCCN)c2c1C(=O)c1ccccc1C2=O (configuration not stated) | > 100
34 | C=CCc1cc(-c2cc(CC=C)c(O)c(CNCCCl)c2)cc(CNCCCl)c1O | 52.1
35 | CC(C)(C)c1ccc(-c2nc3ccc(Cl)cc3c(=O)o2)cc1 | 67.8

tested on: KM12 colon; assay: inhibition of tumour cell growth, NCI panel, 48 h

Row | Compound | TGI [µM]
36 | CCCCCCC(=O)C/C(=N/NC(N)=S)C(=O)NC1C2CC3CC(C2)CC1C3 (configuration not stated) | > 100
37 | CC1=CC(=O)N(n2c(Cc3ccccc3)n[nH]c2=O)C1=O | > 100
38 | CCNc1cc2c(cc1O)CC[C@@H]1[C@@H]2CC[C@]2(C)[C@@H](O)CC[C@@H]12 | 22.4
39 | O=[N+]([O-])c1cccc2nc3ccccc3c(NCCC[N+]3([O-])CCOCC3)c12 | 0.538
40 | NCCCCC(N)C(=O)NCCNc1ccc(NCCNC(=O)C(N)CCCCN)c2c1C(=O)c1ccccc1C2=O (configuration not stated) | > 100
41 | C=CCc1cc(-c2cc(CC=C)c(O)c(CNCCCl)c2)cc(CNCCCl)c1O | 31.4
42 | CC(C)(C)c1ccc(-c2nc3ccc(Cl)cc3c(=O)o2)cc1 | 19.2

tested on: KM20L2 colon; assay: inhibition of tumour cell growth, NCI panel, 48 h

Row | Compound | TGI [µM]
43 | CCCCCCC(=O)C/C(=N/NC(N)=S)C(=O)NC1C2CC3CC(C2)CC1C3 (configuration not stated) | > 100
44 | C=CCc1cc(-c2cc(CC=C)c(O)c(CNCCCl)c2)cc(CNCCCl)c1O | 33.9

tested on: LOX IMVI melanoma; assay: inhibition of tumour cell growth, NCI panel, 48 h

Row | Compound | TGI [µM]
45 | CCCCCCC(=O)C/C(=N/NC(N)=S)C(=O)NC1C2CC3CC(C2)CC1C3 (configuration not stated) | > 100
46 | CC1=CC(=O)N(n2c(Cc3ccccc3)n[nH]c2=O)C1=O | > 100
47 | CCNc1cc2c(cc1O)CC[C@@H]1[C@@H]2CC[C@]2(C)[C@@H](O)CC[C@@H]12 | 20.3
48 | O=[N+]([O-])c1cccc2nc3ccccc3c(NCCC[N+]3([O-])CCOCC3)c12 | 1.62
49 | NCCCCC(N)C(=O)NCCNc1ccc(NCCNC(=O)C(N)CCCCN)c2c1C(=O)c1ccccc1C2=O (configuration not stated) | > 100
50 | C=CCc1cc(-c2cc(CC=C)c(O)c(CNCCCl)c2)cc(CNCCCl)c1O | 31.6
51 | CC(C)(C)c1ccc(-c2nc3ccc(Cl)cc3c(=O)o2)cc1 | 31

tested on: LXFL 529 NSCLC; assay: inhibition of tumour cell growth, NCI panel, 48 h

Row | Compound | TGI [µM]
52 | CCCCCCC(=O)C/C(=N/NC(N)=S)C(=O)NC1C2CC3CC(C2)CC1C3 (configuration not stated) | > 100
53 | C=CCc1cc(-c2cc(CC=C)c(O)c(CNCCCl)c2)cc(CNCCCl)c1O | 29.3

tested on: M14 melanoma; assay: inhibition of tumour cell growth, NCI panel, 48 h

Row | Compound | TGI [µM]
54 | CCCCCCC(=O)C/C(=N/NC(N)=S)C(=O)NC1C2CC3CC(C2)CC1C3 (configuration not stated) | > 100
55 | CC1=CC(=O)N(n2c(Cc3ccccc3)n[nH]c2=O)C1=O | > 100
56 | CCNc1cc2c(cc1O)CC[C@@H]1[C@@H]2CC[C@]2(C)[C@@H](O)CC[C@@H]12 | 18.9
57 | O=[N+]([O-])c1cccc2nc3ccccc3c(NCCC[N+]3([O-])CCOCC3)c12 | 0.921
58 | NCCCCC(N)C(=O)NCCNc1ccc(NCCNC(=O)C(N)CCCCN)c2c1C(=O)c1ccccc1C2=O (configuration not stated) | > 100
59 | C=CCc1cc(-c2cc(CC=C)c(O)c(CNCCCl)c2)cc(CNCCCl)c1O | 32.7
60 | CC(C)(C)c1ccc(-c2nc3ccc(Cl)cc3c(=O)o2)cc1 | 49.2

tested on: M19-MEL melanoma; assay: inhibition of tumour cell growth, NCI panel, 48 h

Row | Compound | TGI [µM]
61 | CCCCCCC(=O)C/C(=N/NC(N)=S)C(=O)NC1C2CC3CC(C2)CC1C3 (configuration not stated) | > 100
62 | C=CCc1cc(-c2cc(CC=C)c(O)c(CNCCCl)c2)cc(CNCCCl)c1O | 32.3

tested on: MALME-3M melanoma; assay: inhibition of tumour cell growth, NCI panel, 48 h

Row | Compound | TGI [µM]
63 | CCCCCCC(=O)C/C(=N/NC(N)=S)C(=O)NC1C2CC3CC(C2)CC1C3 (configuration not stated) | > 100
64 | CC1=CC(=O)N(n2c(Cc3ccccc3)n[nH]c2=O)C1=O | > 100
65 | CCNc1cc2c(cc1O)CC[C@@H]1[C@@H]2CC[C@]2(C)[C@@H](O)CC[C@@H]12 | 17.5
66 | O=[N+]([O-])c1cccc2nc3ccccc3c(NCCC[N+]3([O-])CCOCC3)c12 | 0.347
67 | NCCCCC(N)C(=O)NCCNc1ccc(NCCNC(=O)C(N)CCCCN)c2c1C(=O)c1ccccc1C2=O (configuration not stated) | > 100
68 | C=CCc1cc(-c2cc(CC=C)c(O)c(CNCCCl)c2)cc(CNCCCl)c1O | 39.5
69 | CC(C)(C)c1ccc(-c2nc3ccc(Cl)cc3c(=O)o2)cc1 | 50.9

tested on: MCF7 breast; assay: inhibition of tumour cell growth, NCI panel, 48 h

Row | Compound | TGI [µM]
70 | CC1=CC(=O)N(n2c(Cc3ccccc3)n[nH]c2=O)C1=O | > 100
71 | CCNc1cc2c(cc1O)CC[C@@H]1[C@@H]2CC[C@]2(C)[C@@H](O)CC[C@@H]12 | 25
72 | O=[N+]([O-])c1cccc2nc3ccccc3c(NCCC[N+]3([O-])CCOCC3)c12 | 0.725
73 | NCCCCC(N)C(=O)NCCNc1ccc(NCCNC(=O)C(N)CCCCN)c2c1C(=O)c1ccccc1C2=O (configuration not stated) | > 100
74 | CC(C)(C)c1ccc(-c2nc3ccc(Cl)cc3c(=O)o2)cc1 | 61.7

tested on: MDA-MB-231 breast; assay: inhibition of tumour cell growth, NCI panel, 48 h

Row | Compound | TGI [µM]
75 | CC1=CC(=O)N(n2c(Cc3ccccc3)n[nH]c2=O)C1=O | > 100
76 | CCNc1cc2c(cc1O)CC[C@@H]1[C@@H]2CC[C@]2(C)[C@@H](O)CC[C@@H]12 | 24.9
77 | O=[N+]([O-])c1cccc2nc3ccccc3c(NCCC[N+]3([O-])CCOCC3)c12 | 0.948
78 | NCCCCC(N)C(=O)NCCNc1ccc(NCCNC(=O)C(N)CCCCN)c2c1C(=O)c1ccccc1C2=O (configuration not stated) | > 100
79 | CC(C)(C)c1ccc(-c2nc3ccc(Cl)cc3c(=O)o2)cc1 | 18.6

tested on: MDA-MB-435; assay: inhibition of tumour cell growth, NCI panel, 48 h

Row | Compound | TGI [µM] | GI50 [µM]
80 | CC1=CC(=O)N(n2c(Cc3ccccc3)n[nH]c2=O)C1=O | > 100 | –
81 | CCNc1cc2c(cc1O)CC[C@@H]1[C@@H]2CC[C@]2(C)[C@@H](O)CC[C@@H]12 | 0.712 | 0.0515
82 | O=[N+]([O-])c1cccc2nc3ccccc3c(NCCC[N+]3([O-])CCOCC3)c12 | 0.331 | –
83 | NCCCCC(N)C(=O)NCCNc1ccc(NCCNC(=O)C(N)CCCCN)c2c1C(=O)c1ccccc1C2=O (configuration not stated) | > 100 | –
84 | CC(C)(C)c1ccc(-c2nc3ccc(Cl)cc3c(=O)o2)cc1 | 56.5 | –

tested on: MDA-N; assay: inhibition of tumour cell growth, NCI panel, 48 h

Row | Compound | TGI [µM]
85 | CC1=CC(=O)N(n2c(Cc3ccccc3)n[nH]c2=O)C1=O | > 100
86 | CCNc1cc2c(cc1O)CC[C@@H]1[C@@H]2CC[C@]2(C)[C@@H](O)CC[C@@H]12 | 2.14
87 | O=[N+]([O-])c1cccc2nc3ccccc3c(NCCC[N+]3([O-])CCOCC3)c12 | 0.277
88 | NCCCCC(N)C(=O)NCCNc1ccc(NCCNC(=O)C(N)CCCCN)c2c1C(=O)c1ccccc1C2=O (configuration not stated) | > 100
89 | CC(C)(C)c1ccc(-c2nc3ccc(Cl)cc3c(=O)o2)cc1 | 64

tested on: MOLT-4 leukemia; assay: inhibition of tumour cell growth, NCI panel, 48 h

Row | Compound | TGI [µM]
90 | CCCCCCC(=O)C/C(=N/NC(N)=S)C(=O)NC1C2CC3CC(C2)CC1C3 (configuration not stated) | > 100
91 | CC1=CC(=O)N(n2c(Cc3ccccc3)n[nH]c2=O)C1=O | > 100
92 | CCNc1cc2c(cc1O)CC[C@@H]1[C@@H]2CC[C@]2(C)[C@@H](O)CC[C@@H]12 | 46.7
93 | O=[N+]([O-])c1cccc2nc3ccccc3c(NCCC[N+]3([O-])CCOCC3)c12 | > 100
94 | NCCCCC(N)C(=O)NCCNc1ccc(NCCNC(=O)C(N)CCCCN)c2c1C(=O)c1ccccc1C2=O (configuration not stated) | > 100
95 | C=CCc1cc(-c2cc(CC=C)c(O)c(CNCCCl)c2)cc(CNCCCl)c1O | 53.4
96 | CC(C)(C)c1ccc(-c2nc3ccc(Cl)cc3c(=O)o2)cc1 | 36.3
